Experimental data: PMC10065799, “High-throughput profiling of sequence recognition by tyrosine kinases and SH2 domains using bacterial peptide display” (eLife, 2023)

Key:
c-Src kinase domain = c-Src kinase domain (Homo sapiens, UniProt P12931); experiment: pTyr-Var library bacterial peptide display kinase screen (enrichment scores); type: biochemical
Fyn kinase domain = experiment: as above; type: biochemical, human
Hck kinase domain = experiment: as above; type: biochemical, human
c-Abl kinase domain [1] = target: T1, c-Abl kinase domain (Mus musculus, UniProt P00520); experiment: as above; type: biochemical
T1 sequence (P00520 242-493 limits assumed): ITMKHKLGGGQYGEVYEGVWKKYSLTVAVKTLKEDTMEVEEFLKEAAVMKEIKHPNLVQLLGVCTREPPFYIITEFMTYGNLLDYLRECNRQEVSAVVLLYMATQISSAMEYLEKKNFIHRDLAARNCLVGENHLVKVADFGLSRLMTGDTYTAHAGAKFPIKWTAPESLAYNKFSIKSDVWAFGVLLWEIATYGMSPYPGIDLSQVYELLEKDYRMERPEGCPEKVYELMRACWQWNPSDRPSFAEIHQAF

Jak2 = experiment: as above; type: biochemical, human
AncSZ kinase domain = experiment: as above; type: biochemical
Fer kinase domain = experiment: as above; type: biochemical, mouse
Fes = experiment: as above; type: biochemical; details: mean of log2 of enrichment over R1-R6
FGFR1 kinase domain = experiment: as above; type: biochemical, human
FGFR3 kinase domain = experiment: as above; type: biochemical, human
EPHB1 kinase domain = experiment: as above; type: biochemical, human
EPHB2 kinase domain [2] = experiment: as above; type: biochemical, human
MERTK kinase domain = experiment: as above; type: biochemical, human
[3] = test system: 4G10 Platinum pan-phosphotyrosine antibody; experiment: Phosphorylated pTyr-Var library selection with biotinylated pan-phosphotyrosine antibody; type: binding, mouse; details: enrichment score, sheet SH2-vs-peptide
c-Src SH2 domain = c-Src SH2 domain (Homo sapiens, UniProt P12931); experiment: pTyr-Var library SH2 domain screen with SH2-dynabeads (enrichment scores)
SHP2 C-SH2 domain = experiment: as above
Grb2 SH2 domain = experiment: as above
c-Abl kinase domain [4] = target: T1, c-Abl kinase domain; experiment: ADP-Quest continuous fluorimetric kinase assay (Michaelis-Menten parameters and initial rates); type: biochemical; details: peptide 100 μM, kinase 10–50 nM; Figure 2C
Text: (§1) A fluorescence-based assay from Eurofins (ADP Quest) was used to measure the Michaelis-Menten kinetic parameters for phosphorylation of the consensus peptides by purified tyrosine kinase domains. In this assay, ADP production as a result of kinase activity is coupled to the production of resorufin, a fluorophore that emits signal at 590 nm. For all experiments, the assay reactions were set up as described in the provided assay kit protocol, in a 384 well plate format. The peptide solutions were serially diluted in 100 mM Tris, pH 8.0, and the kinases were diluted to 50 nM in buffer (10 mM HEPES, 100 mM NaCl, 1 mM TCEP, 5 mM MgCl2, 10% (v/v) glycerol). The final reaction mixtures contained 10 nM of kinase with 100 μM of ATP. […] Phosphorylation reaction progress was monitored by measuring fluorescence at excitation 530 nm and emission 590 nm every 2 min at 37 °C on a plate reader (BioTek Synergy Neo 2). The fluorescence units (RFU) were converted to μM ADP by comparison to a standard curve, and the initial rates were extracted from the linear regime of the reaction progress curves. Initial rates were also measured for samples containing each kinase but lacking a peptide substrate, to account for background ATP hydrolysis. This background rate was subtracted from the rates measured in the presence of peptide. […]

EPHB2 kinase domain [5] = experiment: ADP-Quest continuous fluorimetric kinase assay (initial rates of consensus peptides); type: biochemical, human; details: peptide 100 μM, kinase 10–50 nM; Figure 2C
Text: as §1

[6] = mean of log2 of enrichment over R1-R4
[7] = pTyr-Var library, enrichment score, replicate 1
[8] = pTyr-Var library, enrichment score, replicate 3
[9] = pTyr-Var library, enrichment score, replicate 4
[10] = mean of log2 enrichment of reference peptide, n = 5
[11] = pTyr-Var library, reference peptide enrichment, mean of n = 5
[12] = mean of log2 enrichment of reference peptide, n = 4
[13] = pTyr-Var library, reference peptide enrichment, mean of n = 4

For ATVLNYLPKCI [A2M_Y817], which “c-Src mean of log2(enrichment)” value (c-Src kinase domain; [6]) is on record?
Its value is -1.394.

What about the “c-Src enrich. R1” value (c-Src kinase domain; [7]) of the same substance?
The value was 0.4801.

What about the “c-Src enrich. R3” value (c-Src kinase domain; [8]) of the same substance?
The value was 0.3246.

What about the “c-Src enrich. R4” value (c-Src kinase domain; [9]) of the same substance?
The value was 0.3798.

And the “Fyn mean of log2(enrichment)” value (Fyn kinase domain; [6])?
The value was -1.219.

What about the “Fyn enrich. R1” value (Fyn kinase domain; [7]) of the same substance?
The value was 0.5501.

And the “Fyn enrich. R3” value (Fyn kinase domain; [8])?
Its value is 0.3301.

And the “Fyn enrich. R4” value (Fyn kinase domain; [9])?
Its value is 0.4584.

And the “Hck mean of log2(enrichment)” value (Hck kinase domain; mean of log2(variant) / mean of log2(reference), R1-R4)?
The value was 0.599.

What about the “Hck enrich. R1” value (Hck kinase domain; [7]) of the same substance?
The value was 0.4967.

What about the “Hck enrich. R3” value (Hck kinase domain; [8]) of the same substance?
Its value is 0.9831.

And the “Hck enrich. R4” value (Hck kinase domain; [9])?
Its value is 0.3063.

What about the “c-Abl mean of log2(enrichment)” value (c-Abl kinase domain [1]; [6]) of the same substance?
Its value is -0.5355.

And the “c-Abl enrich. R1” value (c-Abl kinase domain [1]; [7])?
Its value is 0.4542.

What about the “c-Abl enrich. R3” value (c-Abl kinase domain [1]; [8]) of the same substance?
Its value is 0.6528.

And the “c-Abl enrich. R4” value (c-Abl kinase domain [1]; [9])?
The value was 0.8371.

And the “Jak2 mean of log2(enrichment)” value (Jak2; mean of log2 of enrichment over R1-R3)?
Its value is -0.2312.

What about the “Jak2 enrich. R1” value (Jak2; [7]) of the same substance?
Its value is 0.7671.

And the “Jak2 enrich. R3” value (Jak2; [8])?
Its value is 0.8013.

And the “AncSZ mean of log2(enrichment)” value (AncSZ kinase domain; mean of log2 of enrichment over R1-R5)?
Its value is -0.4662.

What about the “AncSZ enrich. R1” value (AncSZ kinase domain; [7]) of the same substance?
Its value is 0.5771.

And the “AncSZ enrich. R3” value (AncSZ kinase domain; [8])?
Its value is 0.5974.

What about the “AncSZ enrich. R4” value (AncSZ kinase domain; [9]) of the same substance?
Its value is 1.037.

And the “AncSZ enrich. R5” value (AncSZ kinase domain; pTyr-Var library, enrichment score, replicate 5)?
Its value is 0.9242.

And the “Fer mean of log2(enrichment)” value (Fer kinase domain; [6])?
The value was -1.275.

And the “Fer enrich. R1” value (Fer kinase domain; [7])?
Its value is 0.6179.

What about the “Fer enrich. R3” value (Fer kinase domain; [8]) of the same substance?
The value was 0.5252.

And the “Fer enrich. R4” value (Fer kinase domain; [9])?
Its value is 0.2478.

And the “Fes mean of log2(enrichment)” value (Fes)?
The value was -0.04028.

What about the “mean of log2(reference)” value (FGFR1 kinase domain; [10]) of the same substance?
Its value is -0.9981.

What about the ref. mean (FGFR1 kinase domain; [11]) of the same substance?
The ref. mean was 0.5192.

And the “mean of log2(reference)” value (FGFR3 kinase domain; [10])?
Its value is -0.6609.

And the ref. mean (FGFR3 kinase domain; [11])?
Its ref. mean is 0.649.

What about the “mean of log2(reference)” value (EPHB1 kinase domain; [12]) of the same substance?
The value was -0.6057.

What about the ref. mean (EPHB1 kinase domain; [13]) of the same substance?
The ref. mean was 0.6623.

And the “mean of log2(reference)” value (EPHB2 kinase domain [2]; [12])?
The value was -0.8971.

What about the ref. mean (EPHB2 kinase domain [2]; [13]) of the same substance?
Its ref. mean is 0.5418.

What about the “mean of log2(reference)” value (MERTK kinase domain; [12]) of the same substance?
Its value is -1.427.

What about the ref. mean (MERTK kinase domain; [13]) of the same substance?
Its ref. mean is 0.3924.

And the “4G10 (mean)” value [3]?
Its value is 0.6373.

What about the “c-Src (mean)” value (c-Src SH2 domain; enrichment score, phosphorylated pTyr-Var library, sheet SH2-vs-peptide, mean) of the same substance?
Its value is 0.535.

What about the “mean of log2(reference)” value (c-Src SH2 domain; mean of log2 enrichment of reference peptide, R1-R3, sheet c-Src) of the same substance?
The value was -0.9781.

And the ref. mean (c-Src SH2 domain; reference peptide, mean of R1-R3, sheet c-Src)?
The ref. mean was 0.535.

And the “mean of log2(reference)” value (SHP2 C-SH2 domain; SHP2-C SH2, mean of log2 enrichment of reference, R1-R3)?
Its value is -0.4562.

What about the ref. mean (SHP2 C-SH2 domain; reference peptide enrichment score, SHP2-C SH2, mean of R1-R3) of the same substance?
The ref. mean was 0.736.

And the “mean of log2(reference)” value (Grb2 SH2 domain; Grb2 SH2, mean of log2 enrichment of reference, R1-R3)?
The value was -0.1568.

What about the ref. mean (Grb2 SH2 domain; reference peptide enrichment score, Grb2 SH2, mean of R1-R3) of the same substance?
Its ref. mean is 0.8993.

Which results are given for “Ac-GPPEPIYEVPPPKKKG-NH2 [EPHB2 Consensus, EPHB2 consensus substrate peptide from X5-Y-X5 screen]”?
phosphorylation of consensus peptide by c-Abl (initial rate relative to cognate consensus) (c-Abl kinase domain [4]): efficiently phosphorylated; phosphorylation of consensus peptide by EPHB2 (initial rate relative to cognate consensus) (EPHB2 kinase domain [5]): efficiently phosphorylated
